The results in this text go back to a melting point compilation (Tetko et al.; mined from patent text by program, amines drawn as free bases though some values may be those of a salt).

A word on the melting point: it is the temperature, or range, at which the solid turns liquid. Take `O=C(Cc1ccc(OCc2ccc(F)cc2)cc1)NC1(c2nn[nH]n2)Cc2ccc(-c3ccc(Cl)cc3)cc2C1` (centres undefined): the melting point was in the range of 108 to 110 °C.

Compound `O=C1Cc2cc3c(cc2C(c2ccc([N+](=O)[O-])cc2)=NN1)OCO3` came in with a melting point of 293 to 295 °C.

Compound `Cc1nc(OCCN2CCOCC2)c([N+](=O)[O-])c(N2CCc3ccccc3CC2)n1` came in with a melting point of 143 to 145 °C.

The compound `COC(=O)C(Oc1cc(OCc2ccsc2)ccc1C#N)c1ccccc1C` (racemic) registered a melting point of 102 to 104 °C.

With `S=c1[nH]nc(Cc2ccccc2Nc2c(Cl)cccc2Cl)o1`, the melting point fell in the range of 168 to 170 °C.

The compound `CC(C)N(CCN1C(=O)C(=O)c2ccc(Cl)cc21)C(C)C` registered a melting point of 78 to 79 °C.

With `O=S(=O)(N[C@H](CO)C1CCCCC1)c1ccc(Cl)cc1`, the melting point was in the range of 115 to 118 °C.

For `CNc1nc(-c2ccc(SC)cc2)nc(SC)c1C(=O)Nc1ccc(C)cc1`, the melting point lay in the range of 228 to 230 °C.

The compound `OC1CSC(Oc2cccnc2-c2ccoc2)C(O)C1O` (centres undefined) registered a melting point of 128 °C.

`CCCCc1nc2c(N)nc3cc(-c4ccc(C(C)(C)C)cc4)ccc3c2n1CC(C)C` registered a melting point of 219 to 220 °C.

The compound `O=C1OC(=O)c2cnccc21` displayed a melting point of 72 to 74 °C.

In turn, `Cc1ccc(C(=O)Nc2ccc(CN3CCCCC3)c(C(F)(F)F)c2)cc1-c1ccc2cnncc2c1` returned a melting point of 194 to 195 °C.

`Cc1c2c(c(-c3ccc4c(c3)OCO4)c3c4c(ccc13)OCO4)C(=O)NC2=O` registered a melting point of 310 to 313 °C.

Turning to `COCc1ccc(-c2cn(-c3cc(C(=O)OC)c(NO)cc3C(F)(F)F)cn2)cc1`, the melting point lay in the range of 252 to 257 °C.

Regarding `CNc1nc(NC)nc(OC(F)(F)F)n1`, the melting point was in the range of 68 to 72 °C.

`CCNc1nc(C)c(-c2ccnc(Nc3cc(OC)cc(OC)c3)n2)s1` returned a melting point of 235 to 237 °C.

On to `CCNC(=O)c1c(C2CC2)nc(CC)n1Cc1ccc2oc(-c3ccccc3NS(=O)(=O)C(F)(F)F)cc2c1`, for which the melting point was 165 to 172 °C.

`O=S(=O)(Oc1ccc(C2(c3ccc(OS(=O)(=O)c4ccccc4)cc3)c3ccccc3-c3ccccc32)cc1)c1ccccc1` displayed a melting point of 225 to 226 °C.

Compound `CC(C)(C)C(=O)Oc1ccc(C(=O)c2ccc(Cl)cc2)cc1` returned a melting point of 113 to 114 °C.

Regarding `O=C1c2ccccc2COc2ccc(CCCCl)cc21`, the melting point lay in the range of 69 to 72 °C.

The compound `CC(C)(C)C(=O)Nc1ccc(Br)cc1-c1ccnc(C(F)(F)F)n1` yielded a melting point of 153 to 157 °C.

Take `CC(C)(C)c1ccc(C(=O)Nc2cn3cc(C(F)(F)F)ccc3n2)cc1`: the melting point was in the range of 234 to 235 °C.

In turn, `CCOC(=O)COc1cc(F)c(C)cc1C(=S)NCc1ccc(Br)cc1F` displayed a melting point of 98 to 100 °C.

`COC(=O)c1[nH]c2c(C)ccc(C)c2c1C(=O)OC` came in with a melting point of 143 to 144 °C.

Consider `COC(=O)c1ccc(-n2c(C)nc3ccccc32)cc1`, for which the melting point fell in the range of 153 to 154 °C.

For the compound `CC(C)c1ccc(C2(O)Cc3ccccc3C2=O)c(O)c1` (centres undefined), the melting point lay in the range of 144 to 146 °C.

Regarding `O=C(CCCCOc1ccc(OCc2ccccc2)cc1)C(F)(F)F`, the melting point was in the range of 95.5 to 96 °C.

For `CC(C)CN(Cc1ccccc1)c1ncnc2c1ncn2C1CCCCO1` (centres undefined), the melting point was in the range of 93 to 95 °C.

As for `O=C1CCC(n2cnc3cc(F)ccc3c2=O)C(=O)N1` (centres undefined), the melting point is 296 to 298 °C.

Compound `CCCCn1c(C)cc(=O)n(C)c1=O` had a melting point of 181 to 182 °C.

In the case of `Cc1cc(CCCCCCCOc2ccc(C3=NCCO3)cc2Cl)on1`, the melting point was determined as 88 °C.

Regarding `COCCCCCC(=O)c1ccc(S(C)=O)cc1` (centres undefined), the melting point was in the range of 74 to 77 °C.

`CCc1cc2[nH]c(=O)cc(O)c2c(CC)n1` yielded a melting point of 322 to 325 °C.

Regarding `COC(=O)Cc1ccc(C#N)cc1C`, the melting point fell in the range of 52 to 54 °C.

Consider `Nc1cccc(P(=O)(O)O)c1`, for which the melting point worked out at 300 °C.

For the compound `CC(C)C(NC(=O)Cn1c(-c2ccc(F)cc2)ncc(N)c1=O)C(=O)C(F)(F)F` (centres undefined), the melting point lay in the range of 200 to 203 °C.

Take `COC(=O)c1cc(C(=O)c2ncc3ccc(N(C)C(=O)OC(C)(C)C)cn23)ccc1[N+](=O)[O-]`: the melting point turned out to be 55 °C.

Regarding `ClCCn1c(-c2ccccc2)nc2cc(CN3CCN(C(c4ccccc4)c4ccccc4)CC3)ccc21`, the melting point fell in the range of 174 to 180 °C.

Compound `CCOC(=O)Cn1c2c([nH]c(=O)c1=O)CCC1=C2C=C(n2ccc(C(=O)NCc3ccc([N+](=O)[O-])cc3)c2)CC1` yielded a melting point of 165 °C.

For `Nc1cccnc1Nc1ccccc1C(=O)c1ccc(F)cc1`, the melting point stood at 122 °C.

In turn, `CC1c2ccccc2CCON1C(N)=O` (centres undefined) showed a melting point of 128 to 129 °C.

In the case of `O=C(COc1cccc(-n2nc(-c3ccc(F)cc3)c3cccnc32)c1)NCCO`, the melting point was in the range of 161 to 163 °C.

Turning to `O=c1c2cc(Cl)c(Cl)cc2nc2n1CS(=O)(=O)N2`, the melting point was above 300 °C.

`N#Cc1c2ccccc2cc2c1sc1cccc(-c3cc(Br)c(OCC(=O)O)c(Br)c3)c12` had a melting point of 259 to 261 °C.

For `CCOC(=O)c1oc(Cl)nc1C`, the melting point was 55 to 58 °C.

`CCOc1cc(Cc2cnc(N)nc2N)cc(OCC)c1C(O)CS(C)(=O)=O` (centres undefined) returned a melting point of 205 to 206 °C.

As to `CC1Cn2c(nc3ccccc32)NC1=O` (centres undefined), the melting point was above 260 °C.

`CSc1cc(Cl)cc(C(=O)O)c1` registered a melting point of 148 to 150 °C.

For the compound `COC(=O)c1ccccc1C=Nc1cc(C)ccc1O`, the melting point lay within 82 to 83 °C.

`CCOC(=O)c1c(N)c(Br)cc2c1OCO2` came in with a melting point of 81 to 83 °C.

Compound `O=C(Nc1cc(C(F)(F)F)cc2c(Cl)ccnc12)c1c(Cl)cccc1Cl` yielded a melting point of 150 to 157 °C.

`CC(C)(C)OC(=O)NC(Cc1ccccc1)C(O)CNCC(O)C(Cc1ccccc1)NC(=O)C(O)(CO)C(C)(C)C` (centres undefined) showed a melting point of 84 to 86 °C.

With `COc1nc(OC)nc(OC(C(=O)O)C(C)(C)C)n1` (centres undefined), the melting point lay within 37 to 40 °C.

Regarding `Cn1c(C(F)(F)F)cc(=O)[nH]c1=O`, the melting point lay in the range of 140 to 142 °C.

`O=C(O)/C=C/n1cnc2ccc(OCCO)cc2c1=O`: the melting point was in the range of 247 to 248 °C.

For the compound `Cc1ccc(C)n1-c1cc2[nH]c(=O)c(=O)n(CC(=O)O)c2cc1Cl`, the melting point was above 265 °C.

As for `Cc1cccc(-c2nnn[nH]2)c1`, the melting point is 150 to 152 °C.

On to `Nc1ccccc1-c1ccc(CCCC(=O)O)cc1`, for which the melting point lay within 123 to 126 °C.

In turn, `COc1ccc(C(C)(C)C)cc1S(=O)(=O)Cl` gave a melting point of 75 to 77 °C.

Regarding `COC(=O)C[C@H]1S[C@H](c2cccc(OC)c2OC)c2cc(Cl)ccc2N(CC(C)(C)C)C1=O`, the melting point was in the range of 170 to 171 °C.

As for `Nc1ccc(Nc2c(NCc3ccccc3)cc(C(=O)O)cc2S(=O)(=O)Nc2ccccc2N)cc1`, the melting point stood at 225 °C.

Take `COc1ccc(C2=NN(c3ccc(Br)cc3)C(=O)C(C)(C)C2)cc1OC`: the melting point fell in the range of 123 to 124 °C.

As for `CC1(C)CCC(C)(C)c2cc(COc3c(C(=O)O)cccc3-c3ccccc3)ccc21`, the melting point was in the range of 144 to 146 °C.

In turn, `CCCc1nn(C)c2c(=O)[nH]c(-c3cc([N+](=O)[O-])cnc3OC3CCC3)nc12` showed a melting point of 212 to 214 °C.
